Laboratory results published in patent US20240197652A1, “KETAMINE IN THE TREATMENT OF […]” (Awakn LS Europe Holdings Limited, priority 2021, published 2024).

Columns and labels:
Type in all cases: in vivo, human
[1] = system: subjects of EXAMPLES 7-10; test: Beck Depression Inventory (BDI), subjects of Examples 7-10; conditions: for BDI Score at the one-week follow up / Depression Severity at the One Week Follow Up (BDI): after 100 mg racemic ketamine sublingual; for BDI Score pre-treatment / Depression Severity Pre-Treatment (BDI): baseline before 100 mg racemic ketamine sublingual; for % Change in BDI score: pre-treatment to one-week follow up, 100 mg racemic ketamine sublingual
Protocol: The study spanned a total of 30 days (not counting initial contact and prescreening). Prescreening of all subjects was conducted by phone, and subjects recorded self-report measures, including the Sensitivity to Punishment and Sensitivity to Reward Questionnaire (SPSRQ) and the Gambling Related Cognitions Questionnaire. Prior to beginning treatment, each subject completed the Beck Depression Inventory (BDI) to determine a baseline depression score. Total scores of 0-13 are minimal, 14-19 are mild, 20-28 are moderate, and 29-63 are severe (Beck, Steer, and Brown, 1996).

total plasma leptin = test: Total plasma leptin, Example 8; conditions: for total plasma leptin at 90 minutes post-lozenge / % change in total leptin: 100 mg racemic ketamine sublingual; for total plasma leptin, pre-administration: baseline before 100 mg racemic ketamine sublingual; for % change in total leptin: pre-administration to 90 minutes post-lozenge
Protocol: Blood samples were collected from all three subjects. Blood samples were analysed to determine ketamine and ketamine metabolite levels, as well as the hormones leptin and ghrelin. Self-report measures were conducted.
The treatment protocol commenced in substantially the same way as disclosed in the ketamine in subjects with gambling disorder study completed in EXAMPLE 7, with the exceptions outlined as follows: No behavioural tasks were completed. Blood samples collected every 10 minutes from the time of administration to 90 minutes post-administration were additionally analysed for leptin and ghrelin. Self-report measures included the Binge Eating Scale, the Adult Attachment Interview (AAI), a 20 question interview about the subject's recollections of their childhood (Sykes and Turner, 2015); the Childhood Trauma Questionnaire; the Morningness-Eveningness Questionnaire (MEQ), a 19-item questionnaire designed to assess when a respondent prefers to wake up or start sleep (American Thoracic Society, 2022); the DSM-5 Binge Eating Disorder diagnostic criteria; and the SPSRQ.
Changes in ghrelin and leptin were measured. Ghrelin stimulates appetite and food intake, increases fat deposition, and releases growth hormone. Obese binge eating disorder subjects often have reduced plasma ghrelin, possibly due to the downregulation of ghrelin from excess eating or body fat (Atalayer et al. 2013). Leptin forms a negative feedback loop between fat cells and the hypothalamus, wherein leptin secretion signals the hypothalamus to inhibit food intake and increase energy expenditure. Increased leptin may aid in reducing appetite cravings associated with binge eating disorder (Obradovic et al. 2021).

[2] = Mean plasma ketamine, HNK and norketamine, all subjects of Examples 7-10; conditions: human, plasma, other: sublingual, 100 mg racemic ketamine sublingual, analyte = label
Protocol: Blood samples were collected every 10 minutes, from 0 minutes (the time of administration) to 90 minutes post-administration. Blood samples at each time point were analysed to determine plasma levels of (2S,6S;2R,6R)-Hydroxynorketamine (HNK).
FIGS. 11-13 illustrate ketamine, HNK, and norketamine levels, respectively, for all subjects of EXAMPLES 7-10, while FIG. 14 illustrates the mean plasma levels of ketamine, HNK, and norketamine for all subjects of EXAMPLES 7-10. Results indicated a mean plasma concentration of ketamine of 104.87 ng/ml at 10 minutes, 230.11 ng/ml at 20 minutes, 267.08 ng/ml at 30 minutes, 271.62 ng/ml at 40 minutes, 288.48 ng/ml at 50 minutes, 272.42 ng/ml at 60 minutes, 263.40 ng/ml at 70 minutes, 227.50 ng/ml at 80 minutes, and 176.91 ng/ml at 90 minutes. Mean HNK was 0 at 10 minutes, 12.22 ng/ml at 20 minutes, 56.73 ng/ml at 30 minutes, 79.10 ng/ml at 40 minutes, 126.20 ng/ml at 50 minutes, 198.87 ng/ml at 60 minutes, 221.08 ng/ml at 70 minutes, 209.14 ng/ml at 80 minutes, and 217.32 ng/ml at 90 minutes. Mean norketamine was 1.92 at 10 minutes, 57.39 ng/ml at 20 minutes, 141.78 ng/ml at 30 minutes, 286.02 ng/ml at 40 minutes, 505.15 ng/ml at 50 minutes, 646.73 ng/ml at 60 minutes, 750.57 ng/ml at 70 minutes, 723.79 ng/ml at 80 minutes, and 653.94 ng/ml at 90 minutes.

[3] = subject BE1 (binge eating disorder)
[4] = subject BE2 (binge eating disorder)
[5] = subject BE3 (binge eating disorder)

Q: With `CNC1(c2ccccc2Cl)CCCCC1=O` (racemic) [ketamine, 2-(2-chlorophenyl)-2-(methylamino)-cyclohexanone] as the compound, how does the “BDI Score at the one-week follow up” value [1, 3] read?
A: The value was 2.

Q: And the “BDI Score pre-treatment” value [1, 3]?
A: Its value is 9.

Q: And the “% Change in BDI score” value [1, 3]?
A: Its value is −77.78%.

Q: And the “BDI Score at the one-week follow up” value [1, 4]?
A: Its value is 15.

Q: And the “BDI Score pre-treatment” value [1, 4]?
A: Its value is 19.

Q: What about the “% Change in BDI score” value [1, 4] of the same compound?
A: The value was −21.05%.

Q: And the “BDI Score at the one-week follow up” value [1, 5]?
A: Its value is 1.

Q: And the “BDI Score pre-treatment” value [1, 5]?
A: Its value is 21.

Q: And the “% Change in BDI score” value [1, 5]?
A: The value was −95.24%.

Q: And the “Depression Severity at the One Week Follow Up (BDI)” value ([1]; subject BE3)?
A: The value was “Minimal (Total scores of 0-13 are minimal)”.

Q: And the “Depression Severity Pre-Treatment (BDI)” value ([1]; subject BE3)?
A: The value was “Moderate (20-28 are moderate)”.

Q: What about the “BDI Score at the one-week follow up” value ([1]; subject CSB1 (CSBD)) of the same compound?
A: The value was 9.

Q: What about the “BDI Score pre-treatment” value ([1]; subject CSB1 (CSBD)) of the same compound?
A: The value was 24.

Q: And the “% Change in BDI score” value ([1]; subject CSB1 (CSBD))?
A: The value was −62.50%.

Q: And the “Depression Severity at the One Week Follow Up (BDI)” value ([1]; subject CSB1)?
A: The value was “Minimal (Total scores of 0-13 are minimal)”.

Q: And the “Depression Severity Pre-Treatment (BDI)” value ([1]; subject CSB1)?
A: The value was “Moderate (20-28 are moderate)”.

Q: And the “BDI Score at the one-week follow up” value ([1]; subject CSB2 (CSBD))?
A: Its value is 12.

Q: What about the “BDI Score pre-treatment” value ([1]; subject CSB2 (CSBD)) of the same compound?
A: Its value is 14.

Q: What about the “% Change in BDI score” value ([1]; subject CSB2 (CSBD)) of the same compound?
A: Its value is −14.29%.

Q: What about the “Depression Severity at the One Week Follow Up (BDI)” value ([1]; subject CSB2) of the same compound?
A: Its value is “Minimal (Total scores of 0-13 are minimal)”.

Q: What about the “Depression Severity Pre-Treatment (BDI)” value ([1]; subject CSB2) of the same compound?
A: Its value is “Mild (14-19 are mild)”.

Q: What about the “BDI Score at the one-week follow up” value ([1]; subject CSB3 (CSBD)) of the same compound?
A: The value was 7.

Q: What about the “BDI Score pre-treatment” value ([1]; subject CSB3 (CSBD)) of the same compound?
A: The value was 19.

Q: What about the “% Change in BDI score” value ([1]; subject CSB3 (CSBD)) of the same compound?
A: The value was −63.16%.

Q: And the “Depression Severity at the One Week Follow Up (BDI)” value ([1]; subject CSB3)?
A: Its value is “Minimal (Total scores of 0-13 are minimal)”.

Q: What about the “Depression Severity Pre-Treatment (BDI)” value ([1]; subject CSB3) of the same compound?
A: The value was “Mild (14-19 are mild)”.

Q: What about the “BDI Score at the one-week follow up” value ([1]; subject G1 (gambling disorder)) of the same compound?
A: The value was 9.

Q: What about the “BDI Score pre-treatment” value ([1]; subject G1 (gambling disorder)) of the same compound?
A: The value was 8.

Q: What about the “% Change in BDI score” value ([1]; subject G1 (gambling disorder)) of the same compound?
A: Its value is “+12.5%”.

Q: What about the “BDI Score at the one-week follow up” value ([1]; subject G2 (gambling disorder)) of the same compound?
A: Its value is 24.

Q: What about the “BDI Score pre-treatment” value ([1]; subject G2 (gambling disorder)) of the same compound?
A: The value was 21.

Q: And the “% Change in BDI score” value ([1]; subject G2 (gambling disorder))?
A: Its value is “+14.29%”.

Q: And the “BDI Score at the one-week follow up” value ([1]; subject G3 (gambling disorder))?
A: The value was 14.

Q: And the “BDI Score pre-treatment” value ([1]; subject G3 (gambling disorder))?
A: Its value is 17.

Q: What about the “% Change in BDI score” value ([1]; subject G3 (gambling disorder)) of the same compound?
A: The value was −17.65%.

Q: And the “BDI Score at the one-week follow up” value ([1]; subject G4 (gambling disorder))?
A: Its value is 6.

Q: And the “BDI Score pre-treatment” value ([1]; subject G4 (gambling disorder))?
A: The value was 8.

Q: What about the “% Change in BDI score” value ([1]; subject G4 (gambling disorder)) of the same compound?
A: The value was −25%.

Q: And the “BDI Score at the one-week follow up” value ([1]; subject G5 (gambling disorder))?
A: Its value is 11.

Q: And the “BDI Score pre-treatment” value ([1]; subject G5 (gambling disorder))?
A: Its value is 12.

Q: What about the “% Change in BDI score” value ([1]; subject G5 (gambling disorder)) of the same compound?
A: Its value is −8.33%.

Q: What about the “BDI Score at the one-week follow up” value ([1]; subject IG1 (gaming disorder)) of the same compound?
A: Its value is 10.

Q: What about the “BDI Score pre-treatment” value ([1]; subject IG1 (gaming disorder)) of the same compound?
A: The value was 15.

Q: And the “% Change in BDI score” value ([1]; subject IG1 (gaming disorder))?
A: Its value is −33.33%.

Q: What about the “Depression Severity at the One Week Follow Up (BDI)” value ([1]; subject IG1) of the same compound?
A: Its value is “Minimal (Total scores of 0-13 are minimal)”.

Q: And the “Depression Severity Pre-Treatment (BDI)” value ([1]; subject IG1)?
A: The value was “Mild (14-19 are mild)”.

Q: And the “BDI Score at the one-week follow up” value ([1]; subject IG2 (gaming disorder))?
A: Its value is 8.

Q: And the “BDI Score pre-treatment” value ([1]; subject IG2 (gaming disorder))?
A: The value was 4.

Q: What about the “% Change in BDI score” value ([1]; subject IG2 (gaming disorder)) of the same compound?
A: Its value is “+100%”.

Q: What about the “BDI Score at the one-week follow up” value ([1]; subject IG3 (gaming disorder)) of the same compound?
A: The value was 9.

Q: What about the “BDI Score pre-treatment” value ([1]; subject IG3 (gaming disorder)) of the same compound?
A: Its value is 10.

Q: And the “% Change in BDI score” value ([1]; subject IG3 (gaming disorder))?
A: Its value is −10%.

Q: What about the “total plasma leptin at 90 minutes post-lozenge” value (total plasma leptin; subject BE1) of the same compound?
A: The value was 9.11 ng/mL.

Q: What about the “total plasma leptin, pre-administration” value (total plasma leptin; subject BE1) of the same compound?
A: Its value is 7.10 ng/mL.

Q: What about the “% change in total leptin” value (total plasma leptin; subject BE1) of the same compound?
A: The value was “+28.31%”.

Q: And the “total plasma leptin at 90 minutes post-lozenge” value (total plasma leptin; subject BE2)?
A: Its value is 27.98 ng/mL.

Q: And the “total plasma leptin, pre-administration” value (total plasma leptin; subject BE2)?
A: The value was 21.88 ng/mL.

Q: What about the “% change in total leptin” value (total plasma leptin; subject BE2) of the same compound?
A: The value was “+27.88%”.

Q: What about the “total plasma leptin at 90 minutes post-lozenge” value (total plasma leptin; subject BE3) of the same compound?
A: Its value is 11.23 ng/mL.

Q: What about the “total plasma leptin, pre-administration” value (total plasma leptin; subject BE3) of the same compound?
A: Its value is 12.36 ng/mL.

Q: And the “% change in total leptin” value (total plasma leptin; subject BE3)?
A: The value was −9.14%.

Q: And the concentration at 10 min ([2]; 10 minutes post-administration)?
A: Its concentration at 10 min is 105 ng/mL.

Q: What about the concentration at 20 min ([2]; 20 minutes post-administration) of the same compound?
A: Its concentration at 20 min is 230 ng/mL.

Q: And the concentration at 30 min ([2]; 30 minutes post-administration)?
A: Its concentration at 30 min is 267 ng/mL.

Q: What about the concentration at 40 min ([2]; 40 minutes post-administration) of the same compound?
A: The concentration at 40 min was 272 ng/mL.

Q: And the concentration at 50 min ([2]; 50 minutes post-administration)?
A: Its concentration at 50 min is 288 ng/mL.

Q: What about the concentration at 60 min ([2]; 60 minutes post-administration) of the same compound?
A: Its concentration at 60 min is 272 ng/mL.

Q: What about the concentration at 70 min ([2]; 70 minutes post-administration) of the same compound?
A: Its concentration at 70 min is 263 ng/mL.

Q: And the concentration at 80 min ([2]; 80 minutes post-administration)?
A: The concentration at 80 min was 228 ng/mL.

Q: And the concentration at 90 min ([2]; 90 minutes post-administration)?
A: The concentration at 90 min was 177 ng/mL.
